In BindingDB's records for doi:10.1016/j.bioorg.2015.09.001 (Universiti Teknologi Mara (Uitm), 2015) one finds IC50 data, which are given here for 14 compounds.

A word on the IC50: it is the midpoint of a concentration-inhibition curve. Higher therefore signals a need for much substance.

Molecules are shown by their SMILES.

The target of the experiment is Alpha-glucosidase MAL12 (Saccharomyces cerevisiae (strain ATCC 204508 / S288c), UniProt P53341). The experiment can be described thus: α-Glucosidase Inhibitory Activity. As to the method:
The 135 µL of 50 mM phosphate saline buffer pH (6.8) was added in the 96-well plate and 20 µL of test sample with 70% DMSO added into the wells. The solution of Enzyme 20 µL was added into the wells, and incubated the plate for 15 min. After incubation pre-read of the plate was taken by the spectra max. Afterward 25 µL of the substrate (pNPG) was added and a reading was taken on spectra max at 400 nm for 30 min. The normal reading is taken and the percent inhibition was calculated.

Alpha-glucosidase MAL12, sequence (P53341 whole entry): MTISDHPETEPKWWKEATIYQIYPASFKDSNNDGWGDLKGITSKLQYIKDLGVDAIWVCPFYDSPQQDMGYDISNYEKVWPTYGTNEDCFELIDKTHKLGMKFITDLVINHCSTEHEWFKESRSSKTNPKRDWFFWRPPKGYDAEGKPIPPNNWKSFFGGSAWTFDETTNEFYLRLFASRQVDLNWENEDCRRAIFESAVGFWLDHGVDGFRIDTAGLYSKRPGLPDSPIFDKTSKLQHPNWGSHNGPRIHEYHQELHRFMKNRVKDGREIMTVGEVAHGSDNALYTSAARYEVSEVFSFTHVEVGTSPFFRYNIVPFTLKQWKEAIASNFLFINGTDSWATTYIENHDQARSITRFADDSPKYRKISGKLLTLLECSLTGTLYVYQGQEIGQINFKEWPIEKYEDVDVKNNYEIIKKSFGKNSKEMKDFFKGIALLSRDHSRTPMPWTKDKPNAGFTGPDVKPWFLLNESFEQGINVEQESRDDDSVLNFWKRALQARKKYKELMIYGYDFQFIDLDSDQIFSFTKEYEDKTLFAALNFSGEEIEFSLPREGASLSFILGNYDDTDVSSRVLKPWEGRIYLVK

For `O=C(N/N=C/c1cccc(O)c1O)c1cc2ccccc2[nH]1` [(E)-N'-(2,3-dihydroxybenzylidene)-1H-indole-2-carbohydrazide (6)], the IC50 came out at 86.5 µM.
In the case of `O=C(N/N=C/c1c(O)cc(O)cc1O)c1cc2ccccc2[nH]1` [(E)-N'-(2,4,6-trihydroxybenzylidene)-1H-indole-2-carbohydrazide (2)], half-maximal inhibition (IC50) required 49.2 µM.
For `O=C(N/N=C/c1cc(O)ccc1O)c1cc2ccccc2[nH]1` [(E)-N'-(2,5-dihydroxybenzylidene)-1H-indole-2-carbohydrazide (3)] the value was 144 µM; for `COc1ccc(O)c(/C=N/NC(=O)c2cc3ccccc3[nH]2)c1` [(E)-N'-(2-hydroxy-5-methoxybenzylidene)-1H-indole-2-carbohydrazide (13)], 49.2 µM; for `O=C(N/N=C/c1ccccc1O)c1cc2ccccc2[nH]1` [(E)-N'-(2-hydroxybenzylidene)-1H-indole-2-carbohydrazide (10)], 42.6 µM.
In the case of `O=C(N/N=C/c1cc(O)c(O)c(O)c1)c1cc2ccccc2[nH]1` [(E)-N'-(3,4,5-trihydroxybenzylidene)-1H-indole-2-carbohydrazide (1)], the IC50 came to 2.3 µM.
Take `O=C(N/N=C/c1ccc(O)c(O)c1)c1cc2ccccc2[nH]1` [(E)-N'-(3,4-dihydroxybenzylidene)-1H-indole-2-carbohydrazide (4)]: the IC50 was 41 µM.
Compound `O=C(N/N=C/c1cc(O)cc(O)c1)c1cc2ccccc2[nH]1` [(E)-N'-(3,5-dihydroxybenzylidene)-1H-indole-2-carbohydrazide (7)] registered an IC50 of 226 µM.
Compound `O=C(N/N=C/c1ccc(F)c(Br)c1)c1cc2ccccc2[nH]1` [(E)-N'-(3-Bromo-4-fluorobenzylidene)-1H-indole-2-carbohydrazide (19)] gave an IC50 of 26.6 µM.
To `COc1ccc(/C=N/NC(=O)c2cc3ccccc3[nH]2)c(I)c1O` [(E)-N'-(3-hydroxy-2-iodo-4-methoxybenzylidene)-1H-indole-2-carbohydrazide (14)] belongs 54.6 µM; to `COc1ccc(/C=N/NC(=O)c2cc3ccccc3[nH]2)cc1O` [(E)-N'-(3-hydroxy-4-methoxybenzylidene)-1H-indole-2-carbohydrazide (11)], 191 µM.
Compound `O=C(N/N=C/c1ccc(Cl)cc1)c1cc2ccccc2[nH]1` [(E)-N'-(4-Chlorobenzylidene)-1H-indole-2-carbohydrazide (27)] registered a half-maximal inhibitory concentration (IC50) of 32.1 µM.
`COc1cc(/C=N/NC(=O)c2cc3ccccc3[nH]2)ccc1O` [(E)-N'-(4-hydroxy-3-methoxybenzylidene)-1H-indole-2-carbohydrazide (8)]: half-maximal inhibition (IC50) required 155 µM.
As for `O=C(N/N=C/c1ccc(O)cc1)c1cc2ccccc2[nH]1` [(E)-N'-(4-hydroxybenzylidene)-1H-indole-2-carbohydrazide (9)], the IC50 worked out at 206 µM.
